According to patent publication US9957268B2, “1H-pyrrolo[2,3,c]pyridin-7(6H)-ones and pyrazolo[3,4-c]pyridin-7(6H)-ones as inhibitors of BET proteins” (Incyte Corporation, priority 2014, dated 2018):

Experiments:
[1] = target: BRD4-BD1 (Homo sapiens (Human), UniProt O60885); assay: BRD4 AlphaScreen assay (BRD4-BD1); type: binding; details: biotin-labeled tetra-acetylated histone H4 peptide
Description: (§1) BRD4-BD1 and BRD4-BD2 assays were conducted in white 384-well polystyrene plate in a final volume of 40 μL for BD1 and 60 μL for BD2. Inhibitors were first serially diluted in DMSO and added to the plate wells before the addition of other reaction components. The final concentration of DMSO in the assay was 1.25% (BD1) and 0.83% (BD2). The assays were carried out at room temperature in the assay buffer (50 mM Tris-HCl, pH 7.5, 0.01% Tween-20, 0.01% BSA, 5 mM DTT), containing 50 nM Biotin-labeled tetra-acetylated histone H4 peptide (H4Ac4) and BRD4-BD1 or BRD4-BD2 protein at concentration less than 1 nM. The incubation for 75 min. was followed by the addition of 20 μL of assay buffer supplemented with Streptavidin donor beads (PerkinElmer 6760002) and GSH Acceptor beads (PerkinElmer-AL109C) at final concentration 2-4 μg/mL under reduced light. After plate sealing, the plate was incubated in the dark at room temperature for 75 min. before reading on a PHERAstar FS plate reader (BMG Labtech). IC50 determination was performed by fitting the curve of percent control activity versus the log of the inhibitor concentration using the GraphPad Prism 5.0 software.

[2] = target: BRD4-BD2 (Homo sapiens (Human), UniProt O60885); assay: BRD4 AlphaScreen assay (BRD4-BD2); type: binding; details: biotin-labeled tetra-acetylated histone H4 peptide
Description: as §1

SMILES	IC50 [1]	IC50 [2]
Cn1cc(-c2cccc3c2OC(C2CCOCC2)C(=O)N3)c2cc[nH]c2c1=O (stereo not shown) [Example 7, 8-(6-methyl-7-oxo-6,7-dihydro-1H-pyrrolo[2,3-c]pyridin-4-yl)-2-(tetrahydro-2H-pyran-4-yl)-2H-1,4-benzoxazin-3(4H)-one]	≤ 100 nM	≤ 100 nM
COc1cc2c(c(-c3cn(C)c(=O)c4[nH]ccc34)c1)OC(C(C)C)C(=O)N2 (single isomer, unassigned) [Example 9B, 2-isopropyl-6-methoxy-8-(6-methyl-7-oxo-6,7-dihydro-1H-pyrrolo[2,3-c]pyridin-4-yl)-2H-1,4-benzoxazin-3(4H)-one]	≤ 100 nM	≤ 100 nM
CC(C)C1Oc2c(-c3cn(C)c(=O)c4[nH]ccc34)cc(S(C)(=O)=O)cc2N(C)C1=O (single isomer, unassigned) [Example 47B, 2-isopropyl-4-methyl-8-(6-methyl-7-oxo-6,7-dihydro-1H-pyrrolo[2,3-c]pyridin-4-yl)-6-(methylsulfonyl)-2H-1,4-benzoxazin-3(4H)-one]	≤ 100 nM	≤ 100 nM
CC(O)c1cc2c(c(-c3cn(C)c(=O)c4[nH]ccc34)c1)OC(C)(C)C(=O)N2 (stereo not shown) [Example 81, 6-(1-hydroxyethyl)-2,2-dimethyl-8-(6-methyl-7-oxo-6,7-dihydro-1H-pyrrolo[2,3-c]pyridin-4-yl)-2H-1,4-benzoxazin-3(4H)-one]	≤ 100 nM	≤ 100 nM
CC(C)C1Oc2c(cc(S(C)(=O)=O)cc2-c2cn(C)c(=O)c3[nH]ccc23)NC1=O (single isomer, unassigned) [Example 44B, 2-isopropyl-8-(6-methyl-7-oxo-6,7-dihydro-1H-pyrrolo[2,3-c]pyridin-4-yl)-6-(methylsulfonyl)-2H-1,4-benzoxazin-3(4H)-one]	≤ 100 nM	≤ 100 nM
COc1cc(-c2cn(C)c(=O)c3[nH]ccc23)c2c(c1)N(CC(=O)O)C(=O)C(C(C)C)O2 (stereo not shown) [Example 11, [2-isopropyl-6-methoxy-8-(6-methyl-7-oxo-6,7-dihydro-1H-pyrrolo[2,3-c]pyridin-4-yl)-3-oxo-2,3-dihydro-4H-1,4-benzoxazin-4-yl]acetic acid]	100 to 1000 nM	100 to 1000 nM
COc1cc(-c2cn(C)c(=O)c3[nH]ccc23)c2c(c1)N(CC(=O)N1CCN(C)CC1)C(=O)C(C(C)C)O2 (stereo not shown) [Example 14, 2-isopropyl-6-methoxy-8-(6-methyl-7-oxo-6,7-dihydro-1H-pyrrolo[2,3-c]pyridin-4-yl)-4-[2-(4-methylpiperazin-1-yl)-2-oxoethyl]-2H-1,4-benzoxazin-3(4H)-one]	100 to 1000 nM	≤ 100 nM
COc1cc(-c2cn(C)c(=O)c3[nH]ccc23)c2c(c1)N(C)CC(C(C)C)O2 (stereo not shown) [Example 22, 4-(2-isopropyl-6-methoxy-4-methyl-3,4-dihydro-2H-1,4-benzoxazin-8-yl)-6-methyl-1,6-dihydro-7H-pyrrolo[2,3-c]pyridin-7-one]	100 to 1000 nM	≤ 100 nM
COc1cc2c(c(-c3cn(C)c(=O)c4[nH]ccc34)c1)OC(C(C)C)C(=O)N2 (stereo not shown) [Example 9, 2-isopropyl-6-methoxy-8-(6-methyl-7-oxo-6,7-dihydro-1H-pyrrolo[2,3-c]pyridin-4-yl)-2H-1,4-benzoxazin-3(4H)-one]	≤ 100 nM	
COc1cc2c(c(-c3cn(C)c(=O)c4[nH]ccc34)c1)OC(c1ccccc1)C(=O)N2 (stereo not shown) [Example 24, 6-methoxy-8-(6-methyl-7-oxo-6,7-dihydro-1H-pyrrolo[2,3-c]pyridin-4-yl)-2-phenyl-2H-1,4-benzoxazin-3(4H)-one]	≤ 100 nM	≤ 100 nM
CN1C(=O)C(C)(C)Oc2c(-c3cn(C)c(=O)c4[nH]ccc34)cc(S(C)(=O)=O)cc21 [Example 75, 2,2,4-trimethyl-8-(6-methyl-7-oxo-6,7-dihydro-1H-pyrrolo[2,3-c]pyridin-4-yl)-6-(methylsulfonyl)-2H-1,4-benzoxazin-3(4H)-one]	≤ 100 nM	≤ 100 nM
CCS(=O)(=O)c1cc2c(c(-c3cn(C)c(=O)c4[nH]ccc34)c1)OC(C(C)C)C(=O)N2 (stereo not shown) [Example 51, 6-(ethylsulfonyl)-2-isopropyl-8-(6-methyl-7-oxo-6,7-dihydro-1H-pyrrolo[2,3-c]pyridin-4-yl)-2H-1,4-benzoxazin-3(4H)-one]	≤ 100 nM	≤ 100 nM
Cn1cc(-c2cc(S(C)(=O)=O)cc3c2OC(CCO)C(=O)N3)c2cc[nH]c2c1=O (stereo not shown) [Example 48, 2-(2-hydroxyethyl)-8-(6-methyl-7-oxo-6,7-dihydro-1H-pyrrolo[2,3-c]pyridin-4-yl)-6-(methylsulfonyl)-2H-1,4-benzoxazin-3(4H)-one]	≤ 100 nM	≤ 100 nM
COc1cc2c(c(-c3cn(C)c(=O)c4[nH]ccc34)c1)OC(C1CC1)C(=O)N2 (stereo not shown) [Example 23, 2-cyclopropyl-6-methoxy-8-(6-methyl-7-oxo-6,7-dihydro-1H-pyrrolo[2,3-c]pyridin-4-yl)-2H-1,4-benzoxazin-3(4H)-one]	≤ 100 nM	≤ 100 nM
COc1cc2c(c(-c3cn(C)c(=O)c4[nH]ccc34)c1)OC(C1CCCC1)C(=O)N2 (single isomer, unassigned) [Example 35A, 2-Cyclopentyl-6-methoxy-8-(6-methyl-7-oxo-6,7-dihydro-1H-pyrrolo[2,3-c]pyridin-4-yl)-2H-1,4-benzoxazin-3(4H)-one]	≤ 100 nM	≤ 100 nM
COc1cc2c(c(-c3cn(C)c(=O)c4[nH]ccc34)c1)OC(C1CCCC1)C(=O)N2 (stereo not shown) [Example 35, 2-cyclopentyl-6-methoxy-8-(6-methyl-7-oxo-6,7-dihydro-1H-pyrrolo[2,3-c]pyridin-4-yl)-2H-1,4-benzoxazin-3(4H)-one]	≤ 100 nM	
CN1C(=O)C(C)(C)Oc2c(-c3cn(C)c(=O)c4[nH]ccc34)cc(S(=O)(=O)N3CCCCC3)cc21 [Example 73, 2,2,4-trimethyl-8-(6-methyl-7-oxo-6,7-dihydro-1H-pyrrolo[2,3-c]pyridin-4-yl)-6-(piperidin-1-ylsulfonyl)-2H-1,4-benzoxazin-3(4H)-one]	≤ 100 nM	≤ 100 nM
CC(O)c1cc(-c2cn(C)c(=O)c3[nH]ccc23)c2c(c1)N(C)C(=O)C(C)(C)O2 (single isomer, unassigned) [Example 83A, 6-(1-hydroxyethyl)-2,2,4-trimethyl-8-(6-methyl-7-oxo-6,7-dihydro-1H-pyrrolo[2,3-c]pyridin-4-yl)-2H-1,4-benzoxazin-3(4H)-one]	≤ 100 nM	≤ 100 nM
Cn1cc(-c2cc(S(C)(=O)=O)cc3c2OC2(CC2)C(=O)N3)c2cc[nH]c2c1=O [Example 57, 8-(6-methyl-7-oxo-6,7-dihydro-1H-pyrrolo[2,3-c]pyridin-4-yl)-6-(methylsulfonyl)spiro[1,4-benzoxazine-2,1′-cyclopropan]-3(4H)-one]	≤ 100 nM	≤ 100 nM
CC(C)C1Oc2c(-c3cn(C)c(=O)c4[nH]ccc34)cc(S(C)(=O)=O)cc2N(CC2CC2)C1=O (stereo not shown) [Example 53, 4-(cyclopropylmethyl)-2-isopropyl-8-(6-methyl-7-oxo-6,7-dihydro-1H-pyrrolo[2,3-c]pyridin-4-yl)-6-(methyslulfonyl)-2H-1,4-benzoxazin-3(4H)-one]	≤ 100 nM	≤ 100 nM
CC(C)C1Oc2c(-c3cn(C)c(=O)c4[nH]ccc34)cc(C#N)cc2N(C)C1=O (stereo not shown) [Example 18, 2-isopropyl-4-methyl-8-(6-methyl-7-oxo-6,7-dihydro-1H-pyrrolo[2,3-c]pyridin-4-yl)-3-oxo-3,4-dihydro-2H-1,4-benzoxazine-6-carbonitrile]	100 to 1000 nM	≤ 100 nM
CC(O)c1cc2c(c(-c3cn(C)c(=O)c4[nH]ccc34)c1)OC(C(C)C)C(=O)N2 (stereo not shown) [Example 50, 6-(1-hydroxyethyl)-2-isopropyl-8-(6-methyl-7-oxo-6,7-dihydro-1H-pyrrolo[2,3-c]pyridin-4-yl)-2H-1,4-benzoxazin-3(4H)-one]	≤ 100 nM	≤ 100 nM
COc1cc2c(c(-c3cn(C)c(=O)c4[nH]ncc34)c1)OC(C)(C)C(=O)N2 [Example 29, 6-methoxy-2,2-dimethyl-8-(6-methyl-7-oxo-6,7-dihydro-1H-pyrazolo[3,4-c]pyridin-4-yl)-2H-1,4-benzoxazin-3(4H)-one]	≤ 100 nM	≤ 100 nM
COc1cc2c(c(-c3cn(C)c(=O)c4[nH]ncc34)c1)OC(C1CCCC1)C(=O)N2 (single isomer, unassigned) [Example 42A, 2-cyclopentyl-6-methoxy-8-(6-methyl-7-oxo-6,7-dihydro-1H-pyrazolo[3,4-c]pyridin-4-yl)-2H-1,4-benzoxazin-3(4H)-one]	≤ 100 nM	≤ 100 nM
Cn1cc(-c2cccc3c2OC(C)(C)C(=O)N3)c2cc[nH]c2c1=O [Example 31, 2,2-dimethyl-8-(6-methyl-7-oxo-6,7-dihydro-1H-pyrrolo[2,3-c]pyridin-4-yl)-2H-1,4-benzoxazin-3(4H)-one]	≤ 100 nM	≤ 100 nM
COc1cc2c(c(-c3cn(C)c(=O)c4[nH]ncc34)c1)OC(C1CCCC1)C(=O)N2 (single isomer, unassigned) [Example 42B, 2-cyclopentyl-6-methoxy-8-(6-methyl-7-oxo-6,7-dihydro-1H-pyrazolo[3,4-c]pyridin-4-yl)-2H-1,4-benzoxazin-3(4H)-one]		≤ 100 nM
